What was measured:
Yap1 mRNA [1] = experiment: Yap1 mRNA in NCI H292 cells, RNA analysis (Example 32); type: cell-based, human; details: free uptake, approximately 48 hours
Method: (§1) Modified oligonucleotides described in the studies above were tested at various doses in mucoepidermoid pulmonary carcinoma cell line […]. A control oligonucleotide 792169 was also tested.
Cultured NCI H292 cells at a density of 5000 cells per well were treated using free uptake with modified oligonucleotides diluted to concentrations described in the tables below. After approximately 48 hours, Yap1 mRNA levels were measured as previously described using the Human Yap1 primer-probe set RTS4814. Yap1 mRNA levels were normalized to actin-beta content, as measured by primer probe set RTS5002. Results are presented in the tables below as percent control of the amount of Yap1 mRNA relative to untreated control cells (% UTC).

NCI H292 cells = experiment: Cell proliferation assay in NCI H292 cells, CellTiter-Glo (Example 32); type: cell-based, human; details: free uptake, approximately 144 hours
Method: as §1
(§2) Cultured NCI H292 cells at a density of 1000 cells/well were treated using free uptake with modified oligonucleotides diluted to concentrations described in the tables below. After approximately 144 hours, cell proliferation was measured using the luminescent cell viability CellTiter-Glo® 2.0 Assay (Promega). Results are presented in the tables below as percent control of the amount of luminescence in samples treated with modified oligonucleotides relative to untreated control cells (% UTC).

UPCI:SCC090 cells = experiment: Cell proliferation assay in UPCI:SCC090 cells, CellTiter-Glo (Example 47); type: cell-based, human; details: free uptake, approximately 144 hours
Method: Modified oligonucleotides described in the studies above were tested at various doses in tongue squamous cell carcinoma cell line UPCI:SCC090. A control oligonucleotide 792169, described herein above, was also tested.
as §2, with “UPCI:SCC090” for “NCI H292”

[2] = rat, in vivo, sc, 50 mg/kg
Method: Male Sprague-Dawley rats were maintained on a 12-hour light/dark cycle and fed ad libitum with Purina normal rat chow. Groups of 4 Sprague-Dawley rats each were weekly injected subcutaneously with 50 mg/kg of Ionis oligonucleotide for 6 weeks (total 7 doses). Forty-eight hours after the last dose, the rats were euthanized; and organs, urine and plasma were harvested for further analysis.
To evaluate the effect of Ionis oligonucleotides on kidney function, urinary levels of total protein and creatinine were measured using an automated clinical chemistry analyzer (Hitachi Olympus AU400c, Melville, N.Y.).

SNU-1214 cells = experiment: Cell proliferation assay in SNU-1214 cells, CellTiter-Glo (Example 46); type: cell-based, human; details: free uptake, approximately 144 hours
Method: Modified oligonucleotides described in the studies above were tested at various doses in laryngeal squamous cell carcinoma cell line […]. A control oligonucleotide 792169, described herein above, was also tested.
as §2, with “SNU-1214” for “NCI H292”

Yap1 mRNA [3] = experiment: Yap1 mRNA levels in SNU449 xenograft tumors, alone and in combination with sorafenib (second Example 30); type: in vivo, human; details: SNU449 xenograft mice, oligonucleotide 50 mg/kg, sorafenib 30 mg/kg orally, tumors collected day 119 post implantation, relative to PBS
Method: Modified oligonucleotides described in the studies above were tested in a hepatocellular carcinoma SNU449 xenograft tumor model. In addition to testing the modified oligonucleotide by itself, combination therapy with sorafenib was also tested. A control oligonucleotide 792169, described herein above, was also tested.
Five million SNU449 cells in 30% matrigel were implanted subcutaneously into the fatpads of female NOD.Cg-Prkdcscid II2rgtmlWjl/SzJ mice (from Jackson Laboratory) at 4-6 weeks of age. 43 days post implantation (when tumors had reached approximately 100 mm^3 in size), groups of eight mice each were administered with 50 mg/kg modified oligonucleotide daily for 10 days (loading dose), following which they were administered with 50 mg/kg modified oligonucleotide four times a week for one week, following which they were dosed with 50 mg/kg modified oligonucleotide thrice weekly until the end of the study. […] Animals were sacrificed, and tumors were collected on day 119 post implantation.
Yap1 mRNA knockdown in tumors was measured by RT-qPCR as previously described using the Human Yap1 primer-probe set RTS4814. Yap1 mRNA levels were normalized to actin-beta content, as measured by primer probe set RTS5002. Results are presented in the tables below as percent control of the amount of Yap1 mRNA relative to PBS treated animals (% control).

Substance: 1198440 (AAGTGTATGTCAGAAG; cEt, 2'-MOE, 5-methylcytosine, phosphorothioate modifications, further chemistry not given here) [compound 1198440]
- human Yap1 mRNA expression (Yap1 mRNA [1]; 0.04 μM): 89 % UTC
- human Yap1 mRNA expression (Yap1 mRNA [1]; 0.2 μM): 53 % UTC
- human Yap1 mRNA expression (Yap1 mRNA [1]; 1 μM): 18 % UTC
- human Yap1 mRNA expression (Yap1 mRNA [1]; 5 μM): 5 % UTC
- Antiproliferative effect (cell proliferation, luminescence) (NCI H292 cells; 0.04 μM): 100 % UTC
- Antiproliferative effect (cell proliferation, luminescence) (NCI H292 cells; 0.2 μM): 83 % UTC
- Antiproliferative effect (cell proliferation, luminescence) (NCI H292 cells; 1 μM): 30 % UTC
- Antiproliferative effect (cell proliferation, luminescence) (NCI H292 cells; 5 μM): 15 % UTC
- Antiproliferative effect (cell proliferation, luminescence) (UPCI:SCC090 cells; 0.04 μM): 101 % UTC
- Antiproliferative effect (cell proliferation, luminescence) (UPCI:SCC090 cells; 0.2 μM): 92 % UTC
- Antiproliferative effect (cell proliferation, luminescence) (UPCI:SCC090 cells; 1 μM): 75 % UTC
- Antiproliferative effect (cell proliferation, luminescence) (UPCI:SCC090 cells; 5 μM): 70 % UTC
- URINE P/C ratio (total protein to creatinine ratio) [2]: 9
- Antiproliferative effect (cell proliferation, luminescence) (SNU-1214 cells; 0.04 μM): 84 % UTC
- Antiproliferative effect (cell proliferation, luminescence) (SNU-1214 cells; 0.2 μM): 72 % UTC
- Antiproliferative effect (cell proliferation, luminescence) (SNU-1214 cells; 1 μM): 53 % UTC
- Antiproliferative effect (cell proliferation, luminescence) (SNU-1214 cells; 5 μM): 49 % UTC
- Yap1 mRNA levels in tumors (Yap1 mRNA [3]): 34 % control
